Consider eleven compounds from ChEMBL document CHEMBL5380874, “Transformation of a Dopamine D2 Receptor Agonist to Partial Agonists as Novel Antipsychotic Agents” (J Med Chem, 2023).

pEC50, pKi: −log10 of the molar value.

In series [1] the target is T1, D(2) dopamine receptor (Homo sapiens, UniProt P14416). The series can be described thus: Partial agonist activity at Dopamine D2 receptor (unknown origin) expressed in HEK293T co-expressing G-alphai assessed as increase in cAMP accumulation incubated for 5 mins by BRET assay. The series is classed as functional, cell-based. To be noted: for pEC50: read-out: EC50. Background: cAMP levels reflect the balance of adenylyl cyclase and phosphodiesterase activity.

The target of series [2] is T1, D(2) dopamine receptor. The series can be described thus: Displacement of [3H]N-methylspiperone from Dopamine D2 receptor (unknown origin) expressed in HEK293T cell membrane incubated for 2 hrs by radioligand competitive binding based MicroBeta TriLux reader method. To be noted: for pKi: read-out: Ki; for Ki: read-out: pKi (converted). The series is classed as cell membranes. (In general: Loss of bound radioactivity is the signal in a displacement assay; it reports binding, not function.)

The target of series [3] is T1, D(2) dopamine receptor. In words: Partial agonist activity at Dopamine D2 receptor (unknown origin) expressed in HEK293T coexpressing beta-arrestin-2 assessed as increase in cAMP accumulation incubated for 5 mins by beta-arrestin recruitment based BRET assay. The series is classed as functional, cell-based. The following applies: for pEC50: read-out: EC50; for EC50: read-out: pEC50 (converted).

A short description of series [4]: Drug concentration in C57BL/6J mouse plasma at 5 mg/kg,ip measured at 0.5 hrs by LC-MS analysis. The following applies: in vivo. In kind it is ADME, organism-based.
The nature of series [5]: Drug concentration in C57BL/6J mouse plasma at 5 mg/kg,ip measured at 2 hrs by LC-MS analysis. In kind it is ADME, organism-based. To be noted: in vivo.
The nature of series [6]: Ratio of drug concentration in brain to plasma in C57BL/6J mouse at 5 mg/kg,ip measured at 0.5 hrs by LC-MS analysis. The series is classed as ADME, organism-based. To be noted: read-out: BPR.
Series [7] in a line: Drug concentration in C57BL/6J mouse brain at 5 mg/kg,ip measured at 2 hrs by LC-MS analysis. In kind it is ADME, organism-based. To be noted: read-out: Ct.
Series [8] is described as follows: Ratio of drug concentration in brain to plasma in C57BL/6J mouse at 5 mg/kg,ip measured at 2 hrs by LC-MS analysis. In kind it is ADME, organism-based. To be noted: read-out: BPR.
Series [9] in a line: Drug concentration in C57BL/6J mouse brain at 5 mg/kg,ip measured at 0.5 hrs by LC-MS analysis. In kind it is ADME, organism-based. To be noted: read-out: Ct.
The nature of series [10]: C0 in Sprague-Dawley rat at 3 mg/kg,iv measured upto 24 hrs by LC-MS analysis. To be noted: in vivo. In kind it is ADME, organism-based.
Series [11] deals with D(1B) dopamine receptor (Homo sapiens, UniProt P21918). In words: Displacement of […] from Dopamine D5 receptor (unknown origin) expressed in HEK293T cell membrane incubated for 2 hrs by radioligand competitive binding based MicroBeta TriLux reader method. The series is classed as cell membranes. The following applies: for pKi: read-out: Ki.
A short description of series [12]: Cmax in Sprague-Dawley rat at 10 mg/kg,po measured upto 24 hrs by LC-MS analysis. To be noted: in vivo. In kind it is ADME, organism-based. Further details: time < 24 hrs, dose 10 mg/kg, route po; call rule not given here.
Series [13] can be described thus: Half life in Sprague-Dawley rat at 10 mg/kg,po measured upto 24 hrs by LC-MS analysis. In kind it is ADME, organism-based. The following applies: in vivo.
The nature of series [14]: AUC (0-infinity) in Sprague-Dawley rat at 3 mg/kg,iv measured upto 24 hrs by LC-MS analysis. In kind it is ADME, organism-based. Set-up: dose 3 mg/kg, time < 24 hrs, route iv. To be noted: in vivo.
A short description of series [15]: AUC (0-infinity) in Sprague-Dawley rat at 10 mg/kg,po measured upto 24 hrs by LC-MS analysis. Set-up: dose 10 mg/kg, time < 24 hrs, route po. To be noted: in vivo. In kind it is ADME, organism-based.
Series [16] is described as follows: Oral bioavailability in Sprague-Dawley rat at 10 mg/kg measured upto 24 hrs by LC-MS analysis. The series is classed as ADME, organism-based. To be noted: in vivo.
The nature of series [17]: AUC (0-t) in Sprague-Dawley rat at 3 mg/kg,iv measured upto 24 hrs by LC-MS analysis. The series is classed as ADME, organism-based. Set-up: dose 3 mg/kg, time < 24 hrs, route iv. To be noted: in vivo.
Series [18] in a line: Clearance in Sprague-Dawley rat at 3 mg/kg,iv measured upto 24 hrs by LC-MS analysis. The series is classed as ADME, organism-based. The following applies: in vivo.
The target in series [19] is D(1A) dopamine receptor (Homo sapiens, UniProt P21728). In words: Displacement of [3H]-SCH23390 from Dopamine D1 receptor (unknown origin) expressed in HEK293T cell membrane incubated for 2 hrs by radioligand competitive binding based MicroBeta TriLux reader method. The series is classed as cell membranes. The following applies: for pKi: read-out: Ki.
For series [20], the target named is T2, 5-hydroxytryptamine receptor 2C (Homo sapiens, UniProt P28335).
T2 sequence (P28335 whole entry): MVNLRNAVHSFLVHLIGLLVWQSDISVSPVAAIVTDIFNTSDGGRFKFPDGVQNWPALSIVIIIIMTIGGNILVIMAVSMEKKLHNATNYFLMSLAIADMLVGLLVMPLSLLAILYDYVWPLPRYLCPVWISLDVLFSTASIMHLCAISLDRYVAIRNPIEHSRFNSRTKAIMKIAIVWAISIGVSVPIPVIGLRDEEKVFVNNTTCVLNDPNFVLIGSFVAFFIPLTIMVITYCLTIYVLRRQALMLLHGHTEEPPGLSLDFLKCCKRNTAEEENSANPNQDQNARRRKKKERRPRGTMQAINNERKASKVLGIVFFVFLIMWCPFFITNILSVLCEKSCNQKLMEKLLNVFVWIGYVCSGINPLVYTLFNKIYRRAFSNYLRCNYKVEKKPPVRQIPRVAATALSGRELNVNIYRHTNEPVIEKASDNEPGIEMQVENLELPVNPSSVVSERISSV
The series can be described thus: Displacement of [3H]-LSD from 5-HT2C receptor (unknown origin) expressed in HEK293T cell membrane incubated for 2 hrs by radioligand competitive binding based MicroBeta TriLux reader method. In kind it is cell membranes. To be noted: for pKi: read-out: Ki.

The nature of series [21]: Tmax in Sprague-Dawley rat at 10 mg/kg,po measured upto 24 hrs by LC-MS analysis. The series is classed as ADME, organism-based. To be noted: in vivo.
A short description of series [22]: AUC (0-t) in Sprague-Dawley rat at 10 mg/kg,po measured upto 24 hrs by LC-MS analysis. Set-up: time < 24 hrs, dose 10 mg/kg, route po. The series is classed as ADME, organism-based. The following applies: in vivo.
Series [23] is described as follows: Half life in Sprague-Dawley rat at 3 mg/kg,iv measured upto 24 hrs by LC-MS analysis. In kind it is ADME, organism-based. The following applies: in vivo.

T1 sequence (P14416 whole entry): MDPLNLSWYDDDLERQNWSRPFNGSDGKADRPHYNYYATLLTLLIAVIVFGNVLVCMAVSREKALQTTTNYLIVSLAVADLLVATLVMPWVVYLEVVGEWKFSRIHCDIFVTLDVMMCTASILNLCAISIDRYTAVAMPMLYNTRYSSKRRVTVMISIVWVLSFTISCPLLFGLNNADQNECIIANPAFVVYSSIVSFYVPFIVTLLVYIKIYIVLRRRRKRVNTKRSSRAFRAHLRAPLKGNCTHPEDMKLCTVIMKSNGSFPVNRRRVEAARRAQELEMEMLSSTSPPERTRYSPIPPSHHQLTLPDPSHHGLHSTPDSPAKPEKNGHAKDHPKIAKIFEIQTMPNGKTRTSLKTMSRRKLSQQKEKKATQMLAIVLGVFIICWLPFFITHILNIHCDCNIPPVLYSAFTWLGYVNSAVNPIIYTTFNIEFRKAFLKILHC
Sequence of D(1B) dopamine receptor (P21918 whole entry): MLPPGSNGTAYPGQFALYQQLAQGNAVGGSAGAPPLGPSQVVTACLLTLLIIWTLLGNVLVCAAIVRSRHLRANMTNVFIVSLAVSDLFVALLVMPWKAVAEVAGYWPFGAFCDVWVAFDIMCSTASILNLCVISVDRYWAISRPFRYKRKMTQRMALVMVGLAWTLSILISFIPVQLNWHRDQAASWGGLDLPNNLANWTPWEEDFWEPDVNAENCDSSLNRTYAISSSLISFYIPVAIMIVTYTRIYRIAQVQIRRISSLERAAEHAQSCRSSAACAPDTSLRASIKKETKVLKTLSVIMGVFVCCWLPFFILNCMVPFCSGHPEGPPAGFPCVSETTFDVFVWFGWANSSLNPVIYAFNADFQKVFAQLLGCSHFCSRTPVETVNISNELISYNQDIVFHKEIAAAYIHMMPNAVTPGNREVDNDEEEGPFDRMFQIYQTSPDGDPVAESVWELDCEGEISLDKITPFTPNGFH
Sequence of D(1A) dopamine receptor (P21728 whole entry): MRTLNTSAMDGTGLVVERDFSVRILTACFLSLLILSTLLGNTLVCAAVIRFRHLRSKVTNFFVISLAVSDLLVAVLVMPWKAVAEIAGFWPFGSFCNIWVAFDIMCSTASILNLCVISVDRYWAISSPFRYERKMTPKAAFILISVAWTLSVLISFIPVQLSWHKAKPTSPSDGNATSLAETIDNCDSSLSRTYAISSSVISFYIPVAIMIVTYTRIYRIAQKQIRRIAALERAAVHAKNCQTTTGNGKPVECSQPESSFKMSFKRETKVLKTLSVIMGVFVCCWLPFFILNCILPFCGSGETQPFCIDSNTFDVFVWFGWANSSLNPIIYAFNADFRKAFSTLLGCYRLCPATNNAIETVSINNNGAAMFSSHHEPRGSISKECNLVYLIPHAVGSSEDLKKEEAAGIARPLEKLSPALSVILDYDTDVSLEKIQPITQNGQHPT

The term pEC50 denotes −log10 of the EC50, conventionally taken in molar units. As usually defined, the pKi is the Ki on a negative log10 scale, so that one unit is a factor of ten. As to `CCOc1cccc2cc(CNCCCCCOc3ccc4c(c3)NC(=O)CC4)oc12`, in series [1], the negative logarithm of the EC50 (pEC50) is 6.02. In series [2], the negative-log Ki (pKi) was 6.36 and the Ki is 0.447 µM. Besides, in series [3], the pEC50 was 7.35 and the EC50 is 0.0457 µM.

On to `COc1cccc2cc(CNCCCOc3ccc4ccc(=O)[nH]c4c3)sc12`, for which the negative logarithm of the EC50 (pEC50) in series [1] is 6.57; in series [3], 7.69. Further, the negative-log Ki (pKi) in series [2] was 6.74.

Consider `CCOc1cccc2cc(CNCCCOc3ccc4c(c3)NC(=O)CC4)oc12`, for which the negative-log EC50 (pEC50) in [1] is 7.52; in [3], 7.91. In series [2], the negative logarithm of the Ki (pKi) is 6.96.

In the case of `COc1cccc2cc(CNCCCCOc3ccc4c(c3)NC(=O)CC4)oc12`, the Cp in series [4] was 0.331 µg/mL; in series [5], 0.0107 µg/mL. Besides, the pEC50 was 8.29 in [1] and 8.70 in series [3]. The negative logarithm of the Ki (pKi) in [2] is 7.48. For the same compound, the Ki in [2] was 0.0339 µM. Moreover, the Kp at 0.5 h in series [6] amounted to 0.183. Also, in [7], the concentration at 2 h came out at 0.0041 µg/mL. Also, in series [8], the Kp at 2 h was determined as 0.384. The concentration at 0.5 h in series [9] was 0.0607 µg/mL.

`CCOc1cccc2cc(CNCCCCOc3ccc4oc(C)nc4c3)oc12`: in series [1], the pEC50 was 5.57. In series [2], the pKi was 6.03 and the Ki is 0.955 µM. In addition, in series [3], the negative logarithm of the EC50 (pEC50) is 6.90 and the EC50 was 0.135 µM.

A word on the Cmax: it is the peak of the concentration-time curve. The half-life is the time in which the quantity being followed falls by half. Read a high half-life as slow decline. The AUC(0-inf) is the area under the concentration-time curve extrapolated to infinity. Higher therefore signals high exposure. What is called bioavailability is the share of a dose that reaches the circulation, judged against a reference dose that is usually intravenous. Read a high bioavailability as much systemic uptake. What is called AUC(0-t) is the area under the concentration-time curve up to a stated or last time point. Broadly, the clearance is the volume of plasma or blood freed of the substance per unit of time. The low end stands for a low capacity for elimination, the high end for a high capacity for elimination. As usually defined, the Tmax is the time from dosing to the highest level. In [10], `COc1cccc2c3c(oc12)CN(CCCCOc1ccc2ccc(=O)[nH]c2c1)CC3` had a C0 at 24 h of 1.33 µg/mL. In addition, the pEC50 in series [1] was 7.73. The values for the pKi in [11], in series [19] and in series [20] were 5.98, 6.72 and 6.26, respectively. In addition, the highest level in series [12] (Cmax) was 1.55 µg/mL. Besides, the Cp in series [5] was found to be 0.397 µg/mL. For the same compound, the values for the half-life in [13] and in series [23] were 2.87 h and 3.48 h, respectively. Further, the area under the curve AUC(0-inf) amounted to 3.01 µg·h/mL in [14] and 8.94 µg·h/mL in series [15]. Also, the bioavailability in series [16] was found to be 88.8%. In addition, the AUC(0-t) at 24 h in series [17] turned out to be 2.99 µg·h/mL; in [22], 8.92 µg·h/mL. This compound also yielded a clearance in series [18] of 1 L/h/kg. Besides, the Ki in [20] (read-out: pKi (converted)) was 0.562 µM. The Tmax in series [21] stood at 0.5 h.

Take `CCOc1cccc2c3c(oc12)CN(CCCCOc1ccc2ccc(=O)[nH]c2c1)CC3`: the EC50 result in series [1] (hek293t) is reported as “Not Active”.

With `CCOc1cccc2cc(CNCC[C@H]3CC[C@H](NC(=O)N(C)C)CC3)oc12`, the pEC50 in [1] was 7.83; in [3], 8.42. Moreover, in series [2], the pKi was 7.00.

On to `COc1cccc2c3c(oc12)CN(CCCCOc1ccc2c(c1)NC(=O)CC2)CC3`, for which the Cp in [4] came out at 0.54 µg/mL; in series [5], 0.571 µg/mL. Besides, the pKi in series [11] is 6.80; in series [19], 7.45; in series [20], 6.21. Also, the Ki was 0.162 µM in [11] (read-out: pKi (converted)) and 0.0363 µM in series [19] (read-out: pKi (converted)). In [6], the Kp at 0.5 h was 0.759. For the same compound, in series [7], the concentration at 2 h came out at 0.332 µg/mL. The Kp at 2 h in [8] was found to be 0.439. Besides, the concentration at 0.5 h in [9] was 0.41 µg/mL.

Regarding `CCOc1cccc2cc(CNCC[C@H]3CC[C@H](NC(=O)C4CC4)CC3)oc12`, the negative-log EC50 (pEC50) in [1] is 8.17; in series [3], 8.39. Further, the pKi in [2] was 7.20.

`CCOc1cccc2cc(C(C)NCC3(O)CCCCC3)oc12` (configuration not stated): the pKi in [2] was 5.67.
